Laboratory results from BindingDB's records for PubMed 9454810 (Sanofi Recherche, 1998).

Assays:
Histamine H2 receptor = Histamine H2 receptor (Homo sapiens, UniProt P25021)
[1] = biological target: Leukotriene B4 receptor 2 (Homo sapiens, UniProt Q9NPC1)
Histamine H3 receptor = Histamine H3 receptor (Homo sapiens, UniProt Q9Y5N1)
[2] = biological target: Gamma-aminobutyric acid receptor subunit alpha-1 (Homo sapiens, UniProt P14867)
[3] = biological target: 5-hydroxytryptamine receptor 1D (Homo sapiens, UniProt P28221)
Sequence of 5-hydroxytryptamine receptor 1D (P28221 whole entry): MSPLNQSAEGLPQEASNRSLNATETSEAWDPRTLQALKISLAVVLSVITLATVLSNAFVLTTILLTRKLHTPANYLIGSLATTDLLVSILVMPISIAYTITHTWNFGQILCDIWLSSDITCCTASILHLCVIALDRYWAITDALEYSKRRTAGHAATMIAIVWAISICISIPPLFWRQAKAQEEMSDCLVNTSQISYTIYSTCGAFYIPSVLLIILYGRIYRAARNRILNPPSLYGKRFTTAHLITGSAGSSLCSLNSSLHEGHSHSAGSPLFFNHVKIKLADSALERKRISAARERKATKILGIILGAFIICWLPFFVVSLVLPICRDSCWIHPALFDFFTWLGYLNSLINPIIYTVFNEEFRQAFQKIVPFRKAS

[4] = biological target: 5-hydroxytryptamine receptor 1B (Homo sapiens, UniProt P28222)
Adenosine receptor A1 = Adenosine receptor A1 (Homo sapiens, UniProt P30542)
[5] = biological target: Neuronal acetylcholine receptor subunit alpha-3 (Homo sapiens, UniProt P32297)
[6] = biological target: Type-1 angiotensin II receptor (Homo sapiens, UniProt P30556)
Sequence of Type-1 angiotensin II receptor (P30556 whole entry): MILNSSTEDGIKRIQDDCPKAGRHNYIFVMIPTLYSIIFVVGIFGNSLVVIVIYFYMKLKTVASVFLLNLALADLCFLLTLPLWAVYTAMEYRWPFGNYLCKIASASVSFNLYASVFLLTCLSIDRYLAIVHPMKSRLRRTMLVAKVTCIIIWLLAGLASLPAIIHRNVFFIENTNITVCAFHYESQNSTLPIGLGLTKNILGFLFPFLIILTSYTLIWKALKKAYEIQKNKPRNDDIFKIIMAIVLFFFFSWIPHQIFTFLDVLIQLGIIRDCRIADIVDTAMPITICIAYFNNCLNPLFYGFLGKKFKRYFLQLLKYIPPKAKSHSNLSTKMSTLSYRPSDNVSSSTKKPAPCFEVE

[7] = biological target: Voltage-dependent N-type calcium channel subunit alpha-1B (Homo sapiens, UniProt Q00975)
Neurotensin/neuromedin N = Neurotensin/neuromedin N (Human, UniProt P30990)
B2 bradykinin receptor = B2 bradykinin receptor (Homo sapiens, UniProt P30411)
Vasopressin V2 receptor = Vasopressin V2 receptor (Homo sapiens, UniProt P30518)
Sequence of Vasopressin V2 receptor (P30518 whole entry): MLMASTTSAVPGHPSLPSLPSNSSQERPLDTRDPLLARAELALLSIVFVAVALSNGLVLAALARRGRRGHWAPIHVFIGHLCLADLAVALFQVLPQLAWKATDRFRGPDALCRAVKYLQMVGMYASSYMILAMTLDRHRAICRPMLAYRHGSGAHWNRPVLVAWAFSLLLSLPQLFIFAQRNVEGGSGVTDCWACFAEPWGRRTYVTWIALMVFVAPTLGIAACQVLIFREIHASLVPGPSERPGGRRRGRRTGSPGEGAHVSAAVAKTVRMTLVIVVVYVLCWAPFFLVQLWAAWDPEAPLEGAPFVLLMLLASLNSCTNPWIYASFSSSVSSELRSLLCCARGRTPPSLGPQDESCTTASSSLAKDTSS

Galanin peptides = Galanin peptides (Homo sapiens, UniProt P22466)
Sequence of Galanin peptides (P22466 33-62 limits assumed): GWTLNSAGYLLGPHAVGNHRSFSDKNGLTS

[8] = biological target: 5-hydroxytryptamine receptor 2C (Homo sapiens, UniProt P28335)
Sequence of 5-hydroxytryptamine receptor 2C (P28335 whole entry): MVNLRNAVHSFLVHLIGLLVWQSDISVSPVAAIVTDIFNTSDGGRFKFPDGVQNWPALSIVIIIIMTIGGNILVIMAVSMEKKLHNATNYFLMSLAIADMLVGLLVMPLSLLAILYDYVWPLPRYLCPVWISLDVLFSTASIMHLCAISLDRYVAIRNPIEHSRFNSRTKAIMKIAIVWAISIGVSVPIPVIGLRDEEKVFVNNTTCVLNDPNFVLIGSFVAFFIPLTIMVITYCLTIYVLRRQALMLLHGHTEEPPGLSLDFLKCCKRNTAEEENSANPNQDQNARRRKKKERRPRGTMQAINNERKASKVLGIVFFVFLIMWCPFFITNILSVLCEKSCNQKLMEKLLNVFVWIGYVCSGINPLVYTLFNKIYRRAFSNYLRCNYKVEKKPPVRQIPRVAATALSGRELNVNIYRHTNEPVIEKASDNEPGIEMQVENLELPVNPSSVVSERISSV

Thromboxane A2 receptor = Thromboxane A2 receptor (Homo sapiens, UniProt P21731)
Sequence of Thromboxane A2 receptor (P21731 whole entry): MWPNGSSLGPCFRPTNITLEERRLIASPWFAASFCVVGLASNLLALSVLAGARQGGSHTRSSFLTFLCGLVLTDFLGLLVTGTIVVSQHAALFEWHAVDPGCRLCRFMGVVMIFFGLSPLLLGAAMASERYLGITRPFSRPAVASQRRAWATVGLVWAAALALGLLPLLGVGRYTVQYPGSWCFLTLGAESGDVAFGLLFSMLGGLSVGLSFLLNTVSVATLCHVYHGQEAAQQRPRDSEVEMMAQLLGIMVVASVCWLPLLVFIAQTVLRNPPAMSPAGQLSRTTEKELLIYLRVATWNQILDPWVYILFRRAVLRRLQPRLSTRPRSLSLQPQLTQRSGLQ

D(1A) dopamine receptor = D(1A) dopamine receptor (Homo sapiens, UniProt P21728)
[9] = biological target: Calcium-activated potassium channel subunit beta-1 (Homo sapiens, UniProt Q16558)
[10] = biological target: Protein kinase C alpha type (Homo sapiens, UniProt P17252)
[11] = biological target: Pro-thyrotropin-releasing hormone (Homo sapiens, UniProt P20396)
VIP peptides = VIP peptides (Homo sapiens, UniProt P01282)
Sequence of VIP peptides (P01282 125-152 limits assumed): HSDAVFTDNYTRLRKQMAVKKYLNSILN

Substance-P receptor = Substance-P receptor (Homo sapiens, UniProt P25103)
Sequence of Substance-P receptor (P25103 whole entry): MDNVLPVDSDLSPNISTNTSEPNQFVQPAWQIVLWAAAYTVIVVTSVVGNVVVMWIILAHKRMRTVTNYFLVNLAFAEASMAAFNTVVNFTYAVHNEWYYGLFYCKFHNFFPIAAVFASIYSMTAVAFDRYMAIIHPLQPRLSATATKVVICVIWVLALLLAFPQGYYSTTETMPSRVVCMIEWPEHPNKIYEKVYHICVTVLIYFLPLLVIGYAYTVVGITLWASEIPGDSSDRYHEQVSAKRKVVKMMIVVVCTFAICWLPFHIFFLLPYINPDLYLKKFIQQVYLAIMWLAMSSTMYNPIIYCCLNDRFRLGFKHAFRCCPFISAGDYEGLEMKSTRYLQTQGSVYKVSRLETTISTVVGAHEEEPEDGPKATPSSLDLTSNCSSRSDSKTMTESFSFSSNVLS

[12] = biological target: Beta-2 adrenergic receptor (Homo sapiens, UniProt P07550)
[13] = biological target: AP-4 complex subunit sigma-1 (Homo sapiens, UniProt Q9Y587)
Sequence of AP-4 complex subunit sigma-1 (Q9Y587 whole entry, one chain of several): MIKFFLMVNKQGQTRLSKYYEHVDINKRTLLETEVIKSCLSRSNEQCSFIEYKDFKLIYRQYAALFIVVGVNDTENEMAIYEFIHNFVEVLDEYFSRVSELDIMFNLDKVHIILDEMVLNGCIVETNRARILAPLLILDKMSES

[14] = biological target: 5-hydroxytryptamine receptor 3A (Homo sapiens, UniProt P46098)
Sequence of 5-hydroxytryptamine receptor 3A (P46098 whole entry): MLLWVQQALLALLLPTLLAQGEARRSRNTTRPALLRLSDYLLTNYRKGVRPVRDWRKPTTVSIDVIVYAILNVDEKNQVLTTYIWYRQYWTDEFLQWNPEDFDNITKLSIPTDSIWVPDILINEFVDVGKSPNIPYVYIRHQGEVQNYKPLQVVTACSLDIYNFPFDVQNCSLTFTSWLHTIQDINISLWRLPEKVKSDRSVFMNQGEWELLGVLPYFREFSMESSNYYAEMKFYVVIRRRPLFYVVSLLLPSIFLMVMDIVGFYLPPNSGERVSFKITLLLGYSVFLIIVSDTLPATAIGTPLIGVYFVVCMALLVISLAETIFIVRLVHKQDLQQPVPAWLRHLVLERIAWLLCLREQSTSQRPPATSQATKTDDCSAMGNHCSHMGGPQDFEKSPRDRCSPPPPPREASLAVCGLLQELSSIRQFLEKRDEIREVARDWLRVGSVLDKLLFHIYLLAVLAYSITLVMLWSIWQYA

[15] = biological target: Potassium voltage-gated channel subfamily A member 1 (Homo sapiens, UniProt Q09470)
Sequence of Potassium voltage-gated channel subfamily A member 1 (Q09470 whole entry): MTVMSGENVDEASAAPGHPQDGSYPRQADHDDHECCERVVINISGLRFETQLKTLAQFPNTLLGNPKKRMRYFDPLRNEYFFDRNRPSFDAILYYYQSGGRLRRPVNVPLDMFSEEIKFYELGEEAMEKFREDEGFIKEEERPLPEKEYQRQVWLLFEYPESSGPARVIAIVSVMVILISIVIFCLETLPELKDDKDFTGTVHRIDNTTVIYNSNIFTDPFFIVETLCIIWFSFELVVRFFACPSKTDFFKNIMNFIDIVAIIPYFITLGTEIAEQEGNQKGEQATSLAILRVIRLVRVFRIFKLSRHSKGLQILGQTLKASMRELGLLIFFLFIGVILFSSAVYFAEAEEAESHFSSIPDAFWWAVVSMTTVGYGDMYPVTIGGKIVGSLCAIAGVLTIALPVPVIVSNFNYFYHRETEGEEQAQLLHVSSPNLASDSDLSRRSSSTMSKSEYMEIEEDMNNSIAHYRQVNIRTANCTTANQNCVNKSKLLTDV

[16] = biological target: Peripheral-type benzodiazepine receptor-associated protein 1 (Homo sapiens, UniProt O95153)
[17] = biological target: Endothelin receptor type B (Homo sapiens, UniProt P24530)
[18] = biological target: Alpha-1A adrenergic receptor (Homo sapiens, UniProt P35348)
[19] = biological target: Muscarinic acetylcholine receptor M2 (Homo sapiens, UniProt P08172)
Histamine H1 receptor = Histamine H1 receptor (Homo sapiens, UniProt P35367)
Vasopressin V1b receptor = Vasopressin V1b receptor (Homo sapiens, UniProt P47901)
Substance-K receptor = Substance-K receptor (Homo sapiens, UniProt P21452)
Sequence of Substance-K receptor (P21452 whole entry): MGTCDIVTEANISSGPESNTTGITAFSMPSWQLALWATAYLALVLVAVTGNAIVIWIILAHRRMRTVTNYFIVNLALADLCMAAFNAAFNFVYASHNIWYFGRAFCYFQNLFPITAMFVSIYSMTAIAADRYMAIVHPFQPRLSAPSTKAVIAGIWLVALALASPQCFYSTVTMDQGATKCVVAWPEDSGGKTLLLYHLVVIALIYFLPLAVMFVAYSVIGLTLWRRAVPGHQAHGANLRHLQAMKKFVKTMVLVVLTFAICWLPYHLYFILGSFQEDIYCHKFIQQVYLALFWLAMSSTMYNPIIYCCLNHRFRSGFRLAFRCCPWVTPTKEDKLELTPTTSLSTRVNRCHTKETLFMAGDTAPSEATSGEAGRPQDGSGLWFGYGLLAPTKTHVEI

Adenosine receptor A2a = Adenosine receptor A2a (Homo sapiens, UniProt P29274)
[20] = biological target: Muscarinic acetylcholine receptor M1 (Homo sapiens, UniProt P11229)
P2Y purinoceptor 1 = P2Y purinoceptor 1 (Homo sapiens, UniProt P47900)
[21] = biological target: Gastrin/cholecystokinin type B receptor (Homo sapiens, UniProt P32239)
[22] = biological target: Muscarinic acetylcholine receptor M4 (Homo sapiens, UniProt P08173)
[23] = biological target: Neuropeptide Y receptor type 2 (Homo sapiens, UniProt P49146)
Sequence of Neuropeptide Y receptor type 2 (P49146 whole entry): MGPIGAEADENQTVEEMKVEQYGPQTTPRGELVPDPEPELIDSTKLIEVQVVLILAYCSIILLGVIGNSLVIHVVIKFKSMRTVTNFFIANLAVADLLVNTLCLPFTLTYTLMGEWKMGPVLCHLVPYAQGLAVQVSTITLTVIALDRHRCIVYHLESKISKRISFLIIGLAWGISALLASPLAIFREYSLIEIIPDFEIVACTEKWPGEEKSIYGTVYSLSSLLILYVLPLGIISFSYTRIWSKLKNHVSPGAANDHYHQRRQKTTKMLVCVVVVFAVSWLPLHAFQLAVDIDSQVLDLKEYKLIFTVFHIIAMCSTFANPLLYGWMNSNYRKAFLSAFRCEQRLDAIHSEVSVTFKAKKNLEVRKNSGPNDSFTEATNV

P2X purinoceptor 1 = P2X purinoceptor 1 (Homo sapiens, UniProt P51575)

Measured: Ki

Sequence of Histamine H3 receptor (Q9Y5N1 whole entry): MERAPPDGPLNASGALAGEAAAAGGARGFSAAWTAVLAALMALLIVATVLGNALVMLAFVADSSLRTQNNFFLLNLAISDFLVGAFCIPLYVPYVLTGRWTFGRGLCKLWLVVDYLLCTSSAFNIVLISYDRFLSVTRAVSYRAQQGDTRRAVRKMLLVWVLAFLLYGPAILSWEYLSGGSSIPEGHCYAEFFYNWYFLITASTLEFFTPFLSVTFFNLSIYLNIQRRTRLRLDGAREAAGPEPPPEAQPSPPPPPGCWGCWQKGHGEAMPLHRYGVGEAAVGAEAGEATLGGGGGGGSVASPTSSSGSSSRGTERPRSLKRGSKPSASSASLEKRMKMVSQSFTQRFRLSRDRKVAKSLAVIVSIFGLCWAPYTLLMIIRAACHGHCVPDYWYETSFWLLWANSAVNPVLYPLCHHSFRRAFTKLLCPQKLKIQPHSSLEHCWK

Cc1ccc(Cn2nc(C(=O)NC3C(C)(C)C4CC[C@@]3(C)C4)cc2-c2ccc(Cl)c(C)c2)cc1 (stereo not given in full) [N-(1,3,3-trimethylbicyclo(2.2.1)heptan-2-yl)-5-(4-chloro-3-methylphenyl)-1-(4-methylbenzyl)pyrazole-3-carboxamide]
> 10 µM: all assays above
